Experimental data reported in the supplement of paper PMC10307832.

Assays:
Experiment in all cases: relative viability (nuclei count vs DMSO), 5 days (fraction); higher = more cells survive
CAL-12T = system: CAL-12T
Summary of the method: (§1)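 After 5 days of treatment, lung cancer cells in 1536-well plates were fixed and stained in a single step (final 0.05% Triton X-100, 1% formaldehyde, 1 ug/ml Hoechst) and their nuclei counted on 4× images. Treatment had been applied by pin tool the day after seeding as one drug alone or as a fixed anchor-drug dose with five library-drug doses (not always all listed) in √10 steps. Relative viability is the nuclei count of treated wells divided by that of vehicle wells, and values are medians of duplicate plates.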

NCI-H2023 = system: NCI-H2023
Summary of the method: as §1

BEN = system: BEN
Summary of the method: as §1

NCI-H1915 = system: NCI-H1915
Summary of the method: as §1

NCI-H520 = system: NCI-H520
Summary of the method: as §1

NCI-H2087 = system: NCI-H2087
Summary of the method: as §1

NCI-H596 = system: NCI-H596
Summary of the method: as §1

201T = system: 201T
Summary of the method: as §1

NCI-H460 = system: NCI-H460
Summary of the method: as §1

NCI-H1650 = system: NCI-H1650
Summary of the method: as §1

NCI-H441 = system: NCI-H441
Summary of the method: as §1

A-427 = system: A-427
Summary of the method: as §1

LCLC-97TM1 = system: LCLC-97TM1
Summary of the method: as §1

NCI-H1944 = system: NCI-H1944
Summary of the method: as §1

NCI-H727 = system: NCI-H727
Summary of the method: as §1

PC-3 [JPC-3] = system: PC-3 [JPC-3]
Summary of the method: as §1

H3255 = system: H3255
Summary of the method: as §1

NCI-H1651 = system: NCI-H1651
Summary of the method: as §1

LC-2-ad = system: LC-2-ad
Summary of the method: as §1

## COc1cc2nccc(Oc3ccc(NC(=O)Nc4cc(C)on4)c(Cl)c3)c2cc1OC [Tivozanib] + CC1(C)CCC(c2ccc(Cl)cc2)=C(CN2CCN(c3ccc(C(=O)NS(=O)(=O)c4ccc(N[C@H](CCN5CCOCC5)CSc5ccccc5)c(S(=O)(=O)C(F)(F)F)c4)cc3)CC2)C1 [Navitoclax] (partner 0.5 µM)
CAL-12T; first compound 0.005 µM
  relative viability: 1.11
CAL-12T; first compound 0.01581 µM
  relative viability: 1.19
CAL-12T; first compound 0.05 µM
  relative viability: 1.18
CAL-12T; first compound 0.5 µM
  relative viability: 0.94
NCI-H2023; first compound 0.005 µM
  relative viability: 0.909
NCI-H2023; first compound 0.01581 µM
  relative viability: 1.02
NCI-H2023; first compound 0.05 µM
  relative viability: 1.04
NCI-H2023; first compound 0.1581 µM
  relative viability: 0.962
NCI-H2023; first compound 0.5 µM
  relative viability: 0.954
BEN; first compound 0.005 µM
  relative viability: 0.0616
BEN; first compound 0.01581 µM
  relative viability: 0.0524
BEN; first compound 0.05 µM
  relative viability: 0.0639
BEN; first compound 0.5 µM
  relative viability: 0.0625
NCI-H1915; first compound 0.005 µM
  relative viability: 0.756
NCI-H1915; first compound 0.01581 µM
  relative viability: 0.765
NCI-H1915; first compound 0.05 µM
  relative viability: 0.806
NCI-H1915; first compound 0.1581 µM
  relative viability: 0.838
NCI-H1915; first compound 0.5 µM
  relative viability: 0.771
NCI-H520; first compound 0.005 µM
  relative viability: 1.09
NCI-H520; first compound 0.01581 µM
  relative viability: 0.962
NCI-H520; first compound 0.05 µM
  relative viability: 0.969
NCI-H520; first compound 0.1581 µM
  relative viability: 0.782
NCI-H520; first compound 0.5 µM
  relative viability: 0.887
NCI-H2087; first compound 0.005 µM
  relative viability: 0.906
NCI-H2087; first compound 0.01581 µM
  relative viability: 1.07
NCI-H2087; first compound 0.05 µM
  relative viability: 1.06
NCI-H2087; first compound 0.1581 µM
  relative viability: 0.917
NCI-H2087; first compound 0.5 µM
  relative viability: 0.906
NCI-H596; first compound 0.005 µM
  relative viability: 0.94
NCI-H596; first compound 0.01581 µM
  relative viability: 1.07
NCI-H596; first compound 0.05 µM
  relative viability: 0.936
NCI-H596; first compound 0.1581 µM
  relative viability: 0.911
NCI-H596; first compound 0.5 µM
  relative viability: 0.922
201T; first compound 0.005 µM
  relative viability: 1.21
201T; first compound 0.01581 µM
  relative viability: 1.17
201T; first compound 0.05 µM
  relative viability: 1.22
201T; first compound 0.1581 µM
  relative viability: 1.17
201T; first compound 0.5 µM
  relative viability: 1.18
NCI-H460; first compound 0.005 µM
  relative viability: 1.09
NCI-H460; first compound 0.01581 µM
  relative viability: 1.24
NCI-H460; first compound 0.05 µM
  relative viability: 1.13
NCI-H460; first compound 0.1581 µM
  relative viability: 1.17
NCI-H460; first compound 0.5 µM
  relative viability: 1.1
NCI-H1650; first compound 0.005 µM
  relative viability: 1.1
NCI-H1650; first compound 0.01581 µM
  relative viability: 1.2
NCI-H1650; first compound 0.05 µM
  relative viability: 1.15
NCI-H1650; first compound 0.1581 µM
  relative viability: 1.28
NCI-H1650; first compound 0.5 µM
  relative viability: 1.53
NCI-H441; first compound 0.005 µM
  relative viability: 0.473
NCI-H441; first compound 0.01581 µM
  relative viability: 0.424
NCI-H441; first compound 0.05 µM
  relative viability: 0.747
NCI-H441; first compound 0.1581 µM
  relative viability: 0.566
NCI-H441; first compound 0.5 µM
  relative viability: 0.545
A-427; first compound 0.005 µM
  relative viability: 0.924
A-427; first compound 0.01581 µM
  relative viability: 0.989
A-427; first compound 0.05 µM
  relative viability: 0.988
A-427; first compound 0.1581 µM
  relative viability: 0.737
A-427; first compound 0.5 µM
  relative viability: 1.03
LCLC-97TM1; first compound 0.005 µM
  relative viability: 0.412
LCLC-97TM1; first compound 0.01581 µM
  relative viability: 0.288
LCLC-97TM1; first compound 0.1581 µM
  relative viability: 0.413
LCLC-97TM1; first compound 0.5 µM
  relative viability: 0.425
NCI-H1944; first compound 0.005 µM
  relative viability: 1.08
NCI-H1944; first compound 0.01581 µM
  relative viability: 1.02
NCI-H1944; first compound 0.05 µM
  relative viability: 1.05
NCI-H1944; first compound 0.1581 µM
  relative viability: 0.891
NCI-H1944; first compound 0.5 µM
  relative viability: 1.1
NCI-H727; first compound 0.005 µM
  relative viability: 0.343
NCI-H727; first compound 0.01581 µM
  relative viability: 0.49
NCI-H727; first compound 0.05 µM
  relative viability: 0.412
NCI-H727; first compound 0.5 µM
  relative viability: 0.551
PC-3 [JPC-3]; first compound 0.005 µM
  relative viability: 0.735
PC-3 [JPC-3]; first compound 0.01581 µM
  relative viability: 0.87
PC-3 [JPC-3]; first compound 0.05 µM
  relative viability: 0.772
PC-3 [JPC-3]; first compound 0.1581 µM
  relative viability: 0.788
PC-3 [JPC-3]; first compound 0.5 µM
  relative viability: 0.809
H3255; first compound 0.005 µM
  relative viability: 0.446
H3255; first compound 0.01581 µM
  relative viability: 0.482
H3255; first compound 0.05 µM
  relative viability: 0.495
H3255; first compound 0.1581 µM
  relative viability: 0.328
H3255; first compound 0.5 µM
  relative viability: 0.516
NCI-H1651; first compound 0.005 µM
  relative viability: 0.979
NCI-H1651; first compound 0.01581 µM
  relative viability: 0.934
NCI-H1651; first compound 0.05 µM
  relative viability: 1.09
NCI-H1651; first compound 0.1581 µM
  relative viability: 0.983
NCI-H1651; first compound 0.5 µM
  relative viability: 1.15
LC-2-ad; first compound 0.005 µM
  relative viability: 0.35
LC-2-ad; first compound 0.01581 µM
  relative viability: 0.48
LC-2-ad; first compound 0.05 µM
  relative viability: 0.535
LC-2-ad; first compound 0.1581 µM
  relative viability: 0.448
LC-2-ad; first compound 0.5 µM
  relative viability: 0.427
